In ChEMBL document CHEMBL1201862, “PubChem BioAssay data set” (2004):
One block for each compound: values may come before it. Calls of active or inactive are those of the source.

Experiments:
Type in all cases: functional
[1] = biological target: T1, Delta-type opioid receptor (Homo sapiens, UniProt P41143); assay: HTS Image-Based Screen for Antagonists of the DOR Receptor. [Related pubchem assays (depositor defined):AID1777, AID1785, AID1786, AID2133]
[2] = biological target: T1, Delta-type opioid receptor; assay: HTS Image-Based Screen for Agonists of the DOR Receptor. [Related pubchem assays (depositor defined):AID1777, AID1786, AID2133]
[3] = biological target: T2, Kappa-type opioid receptor (Homo sapiens, UniProt P41145)
Mu-type opioid receptor = Mu-type opioid receptor (Homo sapiens, UniProt P35372); assay: HTS Image-Based Screen for Agonists of the MOR Receptor. [Related pubchem assays (depositor defined):AID1777, AID1785, AID1786, AID2133];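 note: imaging of beta-arrestin GFP recruitment into spots after receptor activation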
[4] = biological target: T2, Kappa-type opioid receptor; remark: listed apart in the source
Cannabinoid receptor 2 [5] = biological target: T3, Cannabinoid receptor 2 (Homo sapiens, UniProt P34972); assay: SAR analysis of antagonists of the Cannabinoid Receptor 2 using an Image-Based Assay - Set 2. [Related pubchem assays (depositor defined):AID1961, AID1965]
[6] = biological target: T4, G-protein coupled receptor 55 (Homo sapiens, UniProt Q9Y2T6); assay: selective activators of receptor GPR55 – imaging, U2OS cells, beta-arrestin-GFP redistribution, primary screen (AID 1961)
Cannabinoid receptor 2 [7] = biological target: T3, Cannabinoid receptor 2; assay: SAR analysis of agonists of the Cannabinoid Receptor 2 using an Image-Based Assay - Set 2. [Related pubchem assays (depositor defined):AID1961, AID1965]
[8] = biological target: T4, G-protein coupled receptor 55; assay: SAR analysis of selective Agonists of GPR55 using an Image-Based Assay. [Related pubchem assays (depositor defined):AID1961, AID1965]
Cannabinoid receptor 1 [9] = biological target: T5, Cannabinoid receptor 1 (Homo sapiens, UniProt P21554); assay: SAR analysis of antagonists of the Cannabinoid Receptor 1 using an Image-Based Assay. [Related pubchem assays (depositor defined):AID1961, AID1965]
[10] = biological target: 26S proteasome non-ATPase regulatory subunit 14 (Homo sapiens, UniProt O00487); assay: inhibition of proteasome subunit RPN11 – biochemical, fluorescence polarization, uHTS hits, confirmation (AID 602368)
[11] = biological target: Intestinal-type alkaline phosphatase (Homo sapiens, UniProt P09923); assay: activation of human intestinal alkaline phosphatase – biochemical, dose response (AID 488873)
[12] = biological target: 72 kDa type IV collagenase (Homo sapiens, UniProt P08253); assay: Dose Response validation of uHTS RPN11 inhibitor hits using a MMP-2 Fluorescence assay.
Prothrombin = Prothrombin (Bos taurus, UniProt P00735); assay: thrombin protease inhibitors – biochemical, fluorescence polarization, uHTS hits, dose response (AID 602369)
[13] = biological target: Intestinal-type alkaline phosphatase (Mus musculus, UniProt P24822); assay: mouse intestinal alkaline phosphatase activators, dose response, biochemical, luminescence, uHTS hits (AID 488783)
[14] = mitochondrial function rescue without frataxin homolog – Friedreich's ataxia, plus single-dose screen, dose response (AID 1465);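 note: yeast depleted of Yfh1p frataxin homolog grown on glycerol needing respiration; WST-1 tetrazolium dye reduction as measure of cellular dehydrogenase metabolic activity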
[15] = biological target: T6, Alkaline phosphatase, tissue-nonspecific isozyme (Homo sapiens, UniProt P05186); assay: activation of tissue-nonspecific alkaline phosphatase – biochemical, TNAP isozyme, mouse IAP uHTS hits, selectivity assay for mouse IAP activator project, dose response (AID 488880)
T6 sequence (P05186 whole entry): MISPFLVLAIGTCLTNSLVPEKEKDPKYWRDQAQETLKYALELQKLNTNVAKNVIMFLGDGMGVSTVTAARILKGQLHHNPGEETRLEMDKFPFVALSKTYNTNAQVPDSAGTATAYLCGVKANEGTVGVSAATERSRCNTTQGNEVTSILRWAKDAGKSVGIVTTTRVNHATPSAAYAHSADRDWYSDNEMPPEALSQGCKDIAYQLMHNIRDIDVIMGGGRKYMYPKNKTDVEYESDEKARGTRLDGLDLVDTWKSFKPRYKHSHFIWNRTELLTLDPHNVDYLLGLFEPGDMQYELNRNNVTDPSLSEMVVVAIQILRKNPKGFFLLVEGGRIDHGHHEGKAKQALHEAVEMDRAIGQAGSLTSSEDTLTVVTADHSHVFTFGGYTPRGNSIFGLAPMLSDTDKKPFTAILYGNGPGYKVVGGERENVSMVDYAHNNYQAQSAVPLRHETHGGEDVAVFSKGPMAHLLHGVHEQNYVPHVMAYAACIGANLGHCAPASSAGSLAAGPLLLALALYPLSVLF

[16] = biological target: T7, Rac GTPase-activating protein 1 (Homo sapiens, UniProt Q9H0H5); assay: blockers of MgcRacGAP-driven Rac1 GTP hydrolysis – biochemical, ADP Hunter fluorescence, primary and confirmatory, confirmation (AID 624330)
T7 sequence (Q9H0H5 whole entry): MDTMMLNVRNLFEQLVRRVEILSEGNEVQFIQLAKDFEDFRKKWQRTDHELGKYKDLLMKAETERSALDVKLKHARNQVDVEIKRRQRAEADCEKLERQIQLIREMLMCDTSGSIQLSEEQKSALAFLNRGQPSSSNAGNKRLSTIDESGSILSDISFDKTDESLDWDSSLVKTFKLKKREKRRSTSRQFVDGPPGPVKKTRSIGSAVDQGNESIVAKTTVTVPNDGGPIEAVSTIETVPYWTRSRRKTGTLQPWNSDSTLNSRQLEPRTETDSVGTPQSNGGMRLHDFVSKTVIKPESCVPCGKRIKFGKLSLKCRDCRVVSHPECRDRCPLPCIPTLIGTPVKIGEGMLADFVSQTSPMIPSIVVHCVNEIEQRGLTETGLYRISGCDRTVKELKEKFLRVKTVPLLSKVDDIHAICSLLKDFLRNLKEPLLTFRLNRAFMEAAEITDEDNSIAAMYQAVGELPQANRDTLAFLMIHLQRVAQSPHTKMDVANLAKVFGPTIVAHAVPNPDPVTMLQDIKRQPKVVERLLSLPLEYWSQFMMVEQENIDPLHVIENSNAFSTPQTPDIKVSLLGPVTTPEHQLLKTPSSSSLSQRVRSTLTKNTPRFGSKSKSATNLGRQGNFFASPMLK

[17] = biological target: T4, G-protein coupled receptor 55; assay: SAR Analysis of Selective Antagonists of GPR55 using an Image-Based Assay - Set 4. [Related pubchem assays (depositor defined):AID2013, AID2026]
[18] = biological target: T8, G-protein coupled receptor 35 (Homo sapiens, UniProt Q9HC97); assay: SAR analysis of Antagonists of the GPR35 Receptor using an Image-Based Assay - Set 6. [Related pubchem assays (depositor defined):AID2013, AID2026]
Cannabinoid receptor 1 [19] = biological target: T5, Cannabinoid receptor 1; assay: SAR analysis of agonists of the Cannabinoid Receptor 1 using an Image-Based Assay - Set 4. [Related pubchem assays (depositor defined):AID2013, AID2026]
[20] = biological target: T8, G-protein coupled receptor 35; assay: SAR analysis of Agonists of the GPR35 Receptor using an Image-Based Assay - Set 4. [Related pubchem assays (depositor defined):AID2013, AID2026]
Cannabinoid receptor 1 [21] = biological target: T5, Cannabinoid receptor 1; assay: SAR analysis of antagonists of the Cannabinoid Receptor 1 using an Image-Based Assay - Set 4. [Related pubchem assays (depositor defined):AID2013, AID2026]
Cannabinoid receptor 2 [22] = biological target: T3, Cannabinoid receptor 2; assay: SAR analysis of antagonists of the Cannabinoid Receptor 2 using an Image-Based Assay - Set 3. [Related pubchem assays (depositor defined):AID2013, AID2026]
Cannabinoid receptor 2 [23] = biological target: T3, Cannabinoid receptor 2; assay: SAR analysis of agonists of the Cannabinoid Receptor 2 using an Image-Based Assay - Set 3. [Related pubchem assays (depositor defined):AID2013, AID2026]

T3 sequence (P34972 whole entry): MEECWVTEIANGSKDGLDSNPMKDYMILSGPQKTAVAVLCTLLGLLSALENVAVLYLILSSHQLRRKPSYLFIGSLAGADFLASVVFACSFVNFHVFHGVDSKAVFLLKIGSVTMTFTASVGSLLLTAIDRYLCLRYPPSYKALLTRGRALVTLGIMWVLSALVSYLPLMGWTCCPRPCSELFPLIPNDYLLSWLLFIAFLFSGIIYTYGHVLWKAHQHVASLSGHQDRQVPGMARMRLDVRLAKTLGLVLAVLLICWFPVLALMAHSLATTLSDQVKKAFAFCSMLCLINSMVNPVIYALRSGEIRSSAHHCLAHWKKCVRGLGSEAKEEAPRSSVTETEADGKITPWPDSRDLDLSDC
T4 sequence (Q9Y2T6 whole entry): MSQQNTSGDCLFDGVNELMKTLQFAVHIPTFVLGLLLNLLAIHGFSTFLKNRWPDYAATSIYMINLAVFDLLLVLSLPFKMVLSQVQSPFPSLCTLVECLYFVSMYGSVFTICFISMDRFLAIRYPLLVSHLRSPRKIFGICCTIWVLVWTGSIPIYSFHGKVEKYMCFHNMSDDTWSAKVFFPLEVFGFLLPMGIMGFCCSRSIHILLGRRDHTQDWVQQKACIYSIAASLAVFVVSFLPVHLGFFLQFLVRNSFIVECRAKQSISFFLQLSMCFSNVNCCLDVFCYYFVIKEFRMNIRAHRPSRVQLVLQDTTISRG
T5 sequence (P21554 whole entry): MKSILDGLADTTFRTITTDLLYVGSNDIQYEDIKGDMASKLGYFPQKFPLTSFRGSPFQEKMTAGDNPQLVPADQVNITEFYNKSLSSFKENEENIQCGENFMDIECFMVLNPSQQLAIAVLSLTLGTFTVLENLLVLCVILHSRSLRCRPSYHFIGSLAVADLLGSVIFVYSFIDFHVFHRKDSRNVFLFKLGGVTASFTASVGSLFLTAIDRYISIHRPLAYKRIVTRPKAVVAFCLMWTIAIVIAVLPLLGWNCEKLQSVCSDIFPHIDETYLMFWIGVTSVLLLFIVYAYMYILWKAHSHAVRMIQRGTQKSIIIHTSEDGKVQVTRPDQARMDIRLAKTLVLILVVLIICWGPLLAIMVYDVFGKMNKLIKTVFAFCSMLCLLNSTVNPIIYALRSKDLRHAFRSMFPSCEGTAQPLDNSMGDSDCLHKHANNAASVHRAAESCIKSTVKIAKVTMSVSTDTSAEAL
T2 sequence (P41145 whole entry): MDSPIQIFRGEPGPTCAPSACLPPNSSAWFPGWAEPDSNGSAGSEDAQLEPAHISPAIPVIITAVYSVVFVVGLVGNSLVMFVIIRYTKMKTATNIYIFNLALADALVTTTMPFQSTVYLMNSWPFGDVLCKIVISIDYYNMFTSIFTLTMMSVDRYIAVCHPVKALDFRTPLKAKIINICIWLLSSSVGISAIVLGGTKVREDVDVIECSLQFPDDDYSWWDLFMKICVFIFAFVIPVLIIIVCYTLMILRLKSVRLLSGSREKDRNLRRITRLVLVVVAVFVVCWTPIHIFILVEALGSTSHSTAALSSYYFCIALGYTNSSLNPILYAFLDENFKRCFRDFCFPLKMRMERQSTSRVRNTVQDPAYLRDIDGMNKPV
T1 sequence (P41143 whole entry): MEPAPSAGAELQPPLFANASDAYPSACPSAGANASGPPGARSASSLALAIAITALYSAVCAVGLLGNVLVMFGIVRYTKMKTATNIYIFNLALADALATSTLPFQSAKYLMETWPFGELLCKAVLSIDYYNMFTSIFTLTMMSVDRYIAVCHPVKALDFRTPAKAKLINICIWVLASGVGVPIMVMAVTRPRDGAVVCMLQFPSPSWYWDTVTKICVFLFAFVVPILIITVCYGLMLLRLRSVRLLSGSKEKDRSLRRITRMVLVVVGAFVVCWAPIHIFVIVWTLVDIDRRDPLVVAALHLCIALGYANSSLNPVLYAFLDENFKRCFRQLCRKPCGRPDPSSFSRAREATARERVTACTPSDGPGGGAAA
T8 sequence (Q9HC97 whole entry): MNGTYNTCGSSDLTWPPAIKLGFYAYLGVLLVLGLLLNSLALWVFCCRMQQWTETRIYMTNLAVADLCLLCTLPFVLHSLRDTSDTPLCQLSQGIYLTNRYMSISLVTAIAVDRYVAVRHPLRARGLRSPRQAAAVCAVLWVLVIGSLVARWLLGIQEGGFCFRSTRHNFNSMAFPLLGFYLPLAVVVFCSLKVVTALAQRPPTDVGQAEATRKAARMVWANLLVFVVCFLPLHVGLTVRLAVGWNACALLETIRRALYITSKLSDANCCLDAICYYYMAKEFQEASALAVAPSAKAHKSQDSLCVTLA
Intestinal-type alkaline phosphatase (Homo sapiens, UniProt P09923), sequence (P09923 whole entry): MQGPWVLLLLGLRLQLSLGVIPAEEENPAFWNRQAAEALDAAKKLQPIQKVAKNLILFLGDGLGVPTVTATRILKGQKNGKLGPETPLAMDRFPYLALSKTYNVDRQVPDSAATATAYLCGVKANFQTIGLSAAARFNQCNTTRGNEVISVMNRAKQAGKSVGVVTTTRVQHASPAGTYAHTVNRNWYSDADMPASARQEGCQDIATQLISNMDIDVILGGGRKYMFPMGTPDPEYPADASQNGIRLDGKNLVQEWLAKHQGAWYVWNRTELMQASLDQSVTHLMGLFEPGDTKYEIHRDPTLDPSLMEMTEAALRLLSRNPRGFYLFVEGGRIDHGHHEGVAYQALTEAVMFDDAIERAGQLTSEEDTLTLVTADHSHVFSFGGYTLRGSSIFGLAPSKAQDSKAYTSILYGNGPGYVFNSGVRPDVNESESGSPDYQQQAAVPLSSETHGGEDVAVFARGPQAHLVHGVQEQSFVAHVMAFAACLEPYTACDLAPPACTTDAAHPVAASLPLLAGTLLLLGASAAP
72 kDa type IV collagenase, sequence (P08253 whole entry): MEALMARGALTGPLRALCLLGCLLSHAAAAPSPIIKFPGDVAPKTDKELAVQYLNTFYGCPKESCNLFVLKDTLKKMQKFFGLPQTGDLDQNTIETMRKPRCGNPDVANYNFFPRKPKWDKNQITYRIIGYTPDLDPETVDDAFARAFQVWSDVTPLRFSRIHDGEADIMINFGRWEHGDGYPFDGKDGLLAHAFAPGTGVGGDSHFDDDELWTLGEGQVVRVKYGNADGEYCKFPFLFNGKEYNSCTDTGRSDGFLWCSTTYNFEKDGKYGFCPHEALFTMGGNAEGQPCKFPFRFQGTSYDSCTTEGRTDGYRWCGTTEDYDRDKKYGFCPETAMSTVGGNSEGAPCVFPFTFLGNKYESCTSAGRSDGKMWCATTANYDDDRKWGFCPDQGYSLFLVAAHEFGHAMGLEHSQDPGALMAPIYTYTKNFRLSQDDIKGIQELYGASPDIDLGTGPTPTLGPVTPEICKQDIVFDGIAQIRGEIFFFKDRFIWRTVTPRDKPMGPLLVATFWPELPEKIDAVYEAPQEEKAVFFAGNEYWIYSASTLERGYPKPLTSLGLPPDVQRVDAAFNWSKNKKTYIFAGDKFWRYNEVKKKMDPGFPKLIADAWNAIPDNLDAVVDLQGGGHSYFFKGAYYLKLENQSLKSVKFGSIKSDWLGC
Intestinal-type alkaline phosphatase (Mus musculus, UniProt P24822), sequence (P24822 whole entry): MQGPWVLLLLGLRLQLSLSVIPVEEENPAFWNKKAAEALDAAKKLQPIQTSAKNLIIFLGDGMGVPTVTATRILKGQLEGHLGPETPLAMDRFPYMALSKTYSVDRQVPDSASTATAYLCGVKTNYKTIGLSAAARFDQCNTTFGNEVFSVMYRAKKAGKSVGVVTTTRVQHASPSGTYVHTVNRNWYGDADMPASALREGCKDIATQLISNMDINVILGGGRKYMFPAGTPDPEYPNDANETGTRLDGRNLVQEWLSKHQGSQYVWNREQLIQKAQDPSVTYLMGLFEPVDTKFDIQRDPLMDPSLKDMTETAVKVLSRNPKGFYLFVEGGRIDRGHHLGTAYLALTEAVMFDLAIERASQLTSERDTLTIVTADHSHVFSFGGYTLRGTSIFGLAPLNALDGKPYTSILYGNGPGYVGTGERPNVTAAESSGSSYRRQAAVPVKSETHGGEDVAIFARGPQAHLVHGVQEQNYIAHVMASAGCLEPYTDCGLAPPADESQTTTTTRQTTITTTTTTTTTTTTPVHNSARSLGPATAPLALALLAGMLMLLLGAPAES
Mu-type opioid receptor, sequence (P35372 whole entry): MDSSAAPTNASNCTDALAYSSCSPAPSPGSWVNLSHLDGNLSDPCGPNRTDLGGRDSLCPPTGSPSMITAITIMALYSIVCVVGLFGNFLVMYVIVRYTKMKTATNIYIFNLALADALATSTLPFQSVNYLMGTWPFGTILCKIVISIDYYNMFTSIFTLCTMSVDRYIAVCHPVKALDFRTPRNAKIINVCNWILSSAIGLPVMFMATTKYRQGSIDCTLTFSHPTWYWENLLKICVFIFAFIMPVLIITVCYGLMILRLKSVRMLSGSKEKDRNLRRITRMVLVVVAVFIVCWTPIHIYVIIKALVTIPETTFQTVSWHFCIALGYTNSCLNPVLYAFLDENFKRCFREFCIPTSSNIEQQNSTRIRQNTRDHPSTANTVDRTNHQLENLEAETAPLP
26S proteasome non-ATPase regulatory subunit 14, sequence (O00487 whole entry): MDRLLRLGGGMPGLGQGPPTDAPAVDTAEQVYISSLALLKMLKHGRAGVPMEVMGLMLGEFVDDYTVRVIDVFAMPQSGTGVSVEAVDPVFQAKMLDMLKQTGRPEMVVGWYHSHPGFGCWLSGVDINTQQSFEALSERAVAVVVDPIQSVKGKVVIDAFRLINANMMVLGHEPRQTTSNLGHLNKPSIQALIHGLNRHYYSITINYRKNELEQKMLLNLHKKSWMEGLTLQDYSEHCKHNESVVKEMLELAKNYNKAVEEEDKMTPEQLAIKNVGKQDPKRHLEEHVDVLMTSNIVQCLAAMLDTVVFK

IC50 [1]: > 32 µM (inactive)
EC50 [2]: > 32 µM (inactive)
EC50 [3]: 3.33 µM
EC50 (Mu-type opioid receptor): > 32 µM (inactive)
EC50 [4]: 3.82 µM
SMILES: CC(Sc1nnc(CN2CCCC2)n1Cc1ccccc1)C(=O)Nc1ccc(F)cc1 (stereo not given)

IC50 (Cannabinoid receptor 2 [5]): > 32 µM (inactive)
EC50 [6]: 0.84 µM (active)
EC50 (Cannabinoid receptor 2 [7]): 0.0905 µM (active)
EC50 [8]: 0.748 µM (active)
IC50 (Cannabinoid receptor 1 [9]): > 32 µM (inactive)
SMILES: O=C(CSc1nc2ccccc2s1)N1c2ccccc2Sc2ccc(Cl)cc21

IC50 [10]: 26.5 µM (active)
EC50 [11]: 68 µM (active)
IC50 [12]: 20.4 µM (active)
IC50 (Prothrombin): 33 µM (active)
EC50 [13]: 56.6 µM (active)
EC50 [15]: 58.1 µM (active)
IC50 [16]: 207 µM (active)
SMILES: Cc1cc(/C=C2\SC(=S)NC2=O)c(C)[nH]1
EC50 [14]: > 100 µM (active)

IC50 [17]: > 32 µM (inactive)
IC50 [18]: > 32 µM (inactive)
EC50 (Cannabinoid receptor 1 [19]): > 32 µM (inactive)
EC50 [20]: > 32 µM (inactive)
IC50 (Cannabinoid receptor 1 [21]): 11.7 µM (inactive)
IC50 (Cannabinoid receptor 2 [22]): > 32 µM (inactive)
EC50 (Cannabinoid receptor 2 [23]): > 32 µM (inactive)
SMILES: O=C(Cc1ccc(F)cc1)N1CCC(n2nc(-c3ccccc3)oc2=O)CC1
